Assay [1] addresses T1, Gamma-aminobutyric acid receptor subunit alpha-1 (Rattus norvegicus, UniProt P62813).
The target of assay [2] is T2, Gastrin/cholecystokinin type B receptor (Homo sapiens, UniProt P32239).
T2 sequence (P32239 whole entry): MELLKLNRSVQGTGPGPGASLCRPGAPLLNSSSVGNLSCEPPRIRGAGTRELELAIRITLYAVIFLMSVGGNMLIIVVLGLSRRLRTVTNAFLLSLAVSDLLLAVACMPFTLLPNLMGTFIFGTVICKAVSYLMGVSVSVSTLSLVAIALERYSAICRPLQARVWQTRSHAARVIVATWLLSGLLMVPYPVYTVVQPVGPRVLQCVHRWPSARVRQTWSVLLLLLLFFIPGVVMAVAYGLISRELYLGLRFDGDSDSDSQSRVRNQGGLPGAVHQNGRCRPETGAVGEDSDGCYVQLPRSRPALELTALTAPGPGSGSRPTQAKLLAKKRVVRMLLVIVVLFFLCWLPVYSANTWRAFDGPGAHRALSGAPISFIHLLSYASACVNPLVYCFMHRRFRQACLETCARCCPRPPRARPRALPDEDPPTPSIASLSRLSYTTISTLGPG

Another assay addresses D(1A) dopamine receptor (Homo sapiens, UniProt P21728). The class given is functional, cell-based.
For the next assay, the target named is T3, Thromboxane A2 receptor (Homo sapiens, UniProt P21731).
T3 sequence (P21731 whole entry): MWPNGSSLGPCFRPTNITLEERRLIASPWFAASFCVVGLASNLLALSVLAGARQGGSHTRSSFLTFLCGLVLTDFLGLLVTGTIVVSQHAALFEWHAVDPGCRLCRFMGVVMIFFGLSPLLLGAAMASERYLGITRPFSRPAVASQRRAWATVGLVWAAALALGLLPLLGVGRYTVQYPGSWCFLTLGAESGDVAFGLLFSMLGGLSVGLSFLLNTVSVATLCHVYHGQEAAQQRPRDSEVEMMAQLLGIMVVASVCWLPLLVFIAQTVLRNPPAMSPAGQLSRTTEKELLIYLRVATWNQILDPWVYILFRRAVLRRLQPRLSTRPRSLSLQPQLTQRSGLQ

Assay [3] deals with Vascular endothelial growth factor receptor 2 (Homo sapiens, UniProt P35968). The class given is functional.
The target in assay [4] is T4, Amine oxidase [flavin-containing] A (Homo sapiens, UniProt P21397).
T4 sequence (P21397 whole entry): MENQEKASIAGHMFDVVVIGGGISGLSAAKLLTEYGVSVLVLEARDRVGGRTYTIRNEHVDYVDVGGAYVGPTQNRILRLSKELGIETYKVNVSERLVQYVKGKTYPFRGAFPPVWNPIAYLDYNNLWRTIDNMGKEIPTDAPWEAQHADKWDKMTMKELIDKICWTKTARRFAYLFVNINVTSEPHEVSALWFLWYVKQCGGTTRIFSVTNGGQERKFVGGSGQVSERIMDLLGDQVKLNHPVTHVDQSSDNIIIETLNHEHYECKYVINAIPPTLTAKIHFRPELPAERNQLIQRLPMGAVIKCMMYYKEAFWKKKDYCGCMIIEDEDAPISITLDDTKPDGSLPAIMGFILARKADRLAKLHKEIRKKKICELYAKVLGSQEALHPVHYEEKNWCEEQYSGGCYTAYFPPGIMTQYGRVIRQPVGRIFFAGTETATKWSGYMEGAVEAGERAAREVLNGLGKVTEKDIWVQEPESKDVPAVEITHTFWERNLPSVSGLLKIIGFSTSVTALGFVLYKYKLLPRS
Format: functional.

In a further assay the target is D(3) dopamine receptor (Homo sapiens, UniProt P35462).
The target in the next assay is T5, Endothelin-1 receptor (Homo sapiens, UniProt P25101).
T5 sequence (P25101 whole entry): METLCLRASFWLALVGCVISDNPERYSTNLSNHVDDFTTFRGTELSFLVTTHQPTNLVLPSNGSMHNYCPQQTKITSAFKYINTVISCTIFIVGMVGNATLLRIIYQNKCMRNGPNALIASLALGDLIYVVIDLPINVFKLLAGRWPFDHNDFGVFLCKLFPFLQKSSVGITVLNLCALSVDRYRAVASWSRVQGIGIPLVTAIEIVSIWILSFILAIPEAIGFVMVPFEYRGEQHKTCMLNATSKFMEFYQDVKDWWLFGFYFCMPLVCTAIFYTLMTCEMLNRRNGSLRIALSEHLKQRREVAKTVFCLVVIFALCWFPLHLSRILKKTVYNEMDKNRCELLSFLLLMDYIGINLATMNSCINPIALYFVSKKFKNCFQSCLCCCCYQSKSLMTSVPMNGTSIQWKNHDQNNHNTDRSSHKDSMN

The target in a further assay is Cannabinoid receptor 1 (Homo sapiens, UniProt P21554). The class given is functional, cell-based.
Assay [5] has as its target T1, Gamma-aminobutyric acid receptor subunit alpha-1. This is another data set of the same source.
Another assay deals with T6, Estrogen receptor (Homo sapiens, UniProt P03372).
T6 sequence (P03372 whole entry): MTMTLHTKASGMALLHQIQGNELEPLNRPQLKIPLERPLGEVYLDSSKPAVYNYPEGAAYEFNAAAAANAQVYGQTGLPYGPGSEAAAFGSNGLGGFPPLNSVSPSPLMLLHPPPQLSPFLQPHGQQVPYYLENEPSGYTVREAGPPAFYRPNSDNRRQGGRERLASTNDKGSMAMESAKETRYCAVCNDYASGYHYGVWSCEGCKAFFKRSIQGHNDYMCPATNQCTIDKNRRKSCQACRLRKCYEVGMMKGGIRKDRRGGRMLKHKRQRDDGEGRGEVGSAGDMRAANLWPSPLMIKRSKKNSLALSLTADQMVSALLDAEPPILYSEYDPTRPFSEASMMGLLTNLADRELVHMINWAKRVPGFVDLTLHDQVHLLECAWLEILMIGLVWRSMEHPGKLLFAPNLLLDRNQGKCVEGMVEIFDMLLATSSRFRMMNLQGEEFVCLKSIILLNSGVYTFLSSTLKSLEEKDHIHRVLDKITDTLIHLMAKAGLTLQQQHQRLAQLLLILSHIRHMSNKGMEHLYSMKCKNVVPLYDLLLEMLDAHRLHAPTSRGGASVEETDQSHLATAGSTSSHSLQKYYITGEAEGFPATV
Also: assay procedure not described here.

Sequence of D(3) dopamine receptor (P35462 whole entry): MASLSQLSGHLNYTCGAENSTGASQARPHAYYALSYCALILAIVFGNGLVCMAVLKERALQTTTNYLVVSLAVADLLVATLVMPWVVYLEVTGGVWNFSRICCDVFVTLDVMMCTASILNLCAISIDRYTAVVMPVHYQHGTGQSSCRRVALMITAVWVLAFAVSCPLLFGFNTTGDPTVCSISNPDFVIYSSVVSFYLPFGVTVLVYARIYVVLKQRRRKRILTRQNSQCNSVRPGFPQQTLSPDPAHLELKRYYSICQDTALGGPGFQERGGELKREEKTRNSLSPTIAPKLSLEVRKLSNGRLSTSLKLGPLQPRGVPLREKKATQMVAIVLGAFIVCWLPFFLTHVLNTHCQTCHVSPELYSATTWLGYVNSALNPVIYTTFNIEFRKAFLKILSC
Sequence of D(1A) dopamine receptor (P21728 whole entry): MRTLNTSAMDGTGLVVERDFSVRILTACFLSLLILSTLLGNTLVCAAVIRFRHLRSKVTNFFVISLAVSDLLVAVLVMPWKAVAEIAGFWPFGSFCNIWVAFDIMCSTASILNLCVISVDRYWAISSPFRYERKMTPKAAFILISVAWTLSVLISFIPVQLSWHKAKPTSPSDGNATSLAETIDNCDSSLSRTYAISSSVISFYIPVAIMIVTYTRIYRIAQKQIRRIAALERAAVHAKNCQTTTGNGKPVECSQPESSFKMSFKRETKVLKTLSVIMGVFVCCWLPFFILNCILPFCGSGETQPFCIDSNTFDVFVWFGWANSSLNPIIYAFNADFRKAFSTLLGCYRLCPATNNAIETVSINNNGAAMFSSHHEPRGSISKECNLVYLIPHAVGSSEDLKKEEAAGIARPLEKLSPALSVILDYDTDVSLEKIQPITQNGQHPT
T1 sequence (P62813 whole entry): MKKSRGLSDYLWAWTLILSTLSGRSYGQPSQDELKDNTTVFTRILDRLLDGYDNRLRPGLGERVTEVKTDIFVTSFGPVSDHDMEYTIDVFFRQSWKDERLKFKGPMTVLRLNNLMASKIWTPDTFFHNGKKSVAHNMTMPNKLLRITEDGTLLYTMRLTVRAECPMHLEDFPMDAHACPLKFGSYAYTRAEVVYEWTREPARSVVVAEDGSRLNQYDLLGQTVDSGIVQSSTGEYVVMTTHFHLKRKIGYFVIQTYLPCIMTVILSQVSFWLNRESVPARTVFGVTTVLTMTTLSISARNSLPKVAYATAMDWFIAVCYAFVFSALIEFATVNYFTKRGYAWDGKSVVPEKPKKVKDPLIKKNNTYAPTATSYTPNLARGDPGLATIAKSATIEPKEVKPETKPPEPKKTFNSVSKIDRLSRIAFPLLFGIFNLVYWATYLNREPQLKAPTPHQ
Sequence of Vascular endothelial growth factor receptor 2 (P35968 whole entry): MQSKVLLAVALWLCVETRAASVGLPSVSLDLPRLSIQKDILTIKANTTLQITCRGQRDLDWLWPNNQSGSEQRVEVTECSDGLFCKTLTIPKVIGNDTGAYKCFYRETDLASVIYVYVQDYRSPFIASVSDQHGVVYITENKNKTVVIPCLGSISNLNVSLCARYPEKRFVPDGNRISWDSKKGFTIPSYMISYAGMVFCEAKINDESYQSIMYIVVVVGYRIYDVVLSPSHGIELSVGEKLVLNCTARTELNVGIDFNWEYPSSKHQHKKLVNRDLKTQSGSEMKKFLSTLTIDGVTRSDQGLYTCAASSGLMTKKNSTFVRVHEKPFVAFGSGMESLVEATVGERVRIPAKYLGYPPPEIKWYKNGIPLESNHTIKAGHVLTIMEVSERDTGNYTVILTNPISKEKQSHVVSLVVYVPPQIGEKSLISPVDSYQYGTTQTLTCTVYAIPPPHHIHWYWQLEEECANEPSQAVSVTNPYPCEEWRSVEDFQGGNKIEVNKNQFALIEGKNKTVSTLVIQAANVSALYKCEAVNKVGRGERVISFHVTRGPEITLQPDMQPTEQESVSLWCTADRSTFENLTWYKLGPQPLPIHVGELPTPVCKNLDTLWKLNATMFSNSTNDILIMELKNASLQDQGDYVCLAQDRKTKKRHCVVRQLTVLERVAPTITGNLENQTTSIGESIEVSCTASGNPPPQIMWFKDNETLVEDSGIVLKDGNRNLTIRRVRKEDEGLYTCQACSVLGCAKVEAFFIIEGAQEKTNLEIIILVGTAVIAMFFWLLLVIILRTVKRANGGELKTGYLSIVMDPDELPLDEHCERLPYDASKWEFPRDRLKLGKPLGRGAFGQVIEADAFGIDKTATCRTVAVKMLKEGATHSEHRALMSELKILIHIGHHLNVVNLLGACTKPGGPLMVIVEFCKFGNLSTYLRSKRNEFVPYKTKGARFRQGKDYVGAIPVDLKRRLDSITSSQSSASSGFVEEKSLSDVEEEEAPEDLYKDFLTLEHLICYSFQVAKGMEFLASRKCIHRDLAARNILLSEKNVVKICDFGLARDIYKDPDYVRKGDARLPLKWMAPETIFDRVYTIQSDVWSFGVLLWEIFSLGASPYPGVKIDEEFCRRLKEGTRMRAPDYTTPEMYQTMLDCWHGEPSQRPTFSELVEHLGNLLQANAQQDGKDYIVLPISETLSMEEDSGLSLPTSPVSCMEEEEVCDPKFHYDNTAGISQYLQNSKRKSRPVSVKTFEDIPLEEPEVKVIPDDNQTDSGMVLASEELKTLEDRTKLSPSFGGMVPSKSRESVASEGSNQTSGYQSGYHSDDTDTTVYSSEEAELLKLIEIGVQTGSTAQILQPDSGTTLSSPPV
Sequence of Cannabinoid receptor 1 (P21554 whole entry): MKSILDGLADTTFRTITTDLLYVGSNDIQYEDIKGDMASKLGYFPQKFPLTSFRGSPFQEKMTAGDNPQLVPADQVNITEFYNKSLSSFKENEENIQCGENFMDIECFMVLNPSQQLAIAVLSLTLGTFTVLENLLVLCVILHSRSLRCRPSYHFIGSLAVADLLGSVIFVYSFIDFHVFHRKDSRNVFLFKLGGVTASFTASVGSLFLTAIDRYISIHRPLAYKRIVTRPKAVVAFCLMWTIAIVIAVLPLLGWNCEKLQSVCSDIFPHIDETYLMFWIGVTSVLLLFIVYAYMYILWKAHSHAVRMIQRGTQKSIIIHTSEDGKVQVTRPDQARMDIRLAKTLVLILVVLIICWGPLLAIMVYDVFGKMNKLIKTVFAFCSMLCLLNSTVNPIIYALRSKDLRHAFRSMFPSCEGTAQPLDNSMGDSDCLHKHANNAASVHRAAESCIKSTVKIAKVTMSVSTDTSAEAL

For `CCCCc1oc2ccc(NS(C)(=O)=O)cc2c1C(=O)c1ccc(OCCCN(CCCC)CCCC)cc1` [DRONEDARONE], the AC50 in [1] is greater than 30 µM.
For the compound `O=C(O)Cc1ccccc1Nc1c(Cl)cccc1Cl` [DICLOFENAC], the AC50 in assay [2] is greater than 30 µM; at D(1A) dopamine receptor it was greater than 10 µM; at Thromboxane A2 receptor, greater than 30 µM; in [3], greater than 3 µM; in assay [4], greater than 10 µM; on D(3) dopamine receptor it was greater than 10 µM. Also, the AC50 on Endothelin-1 receptor was greater than 30 µM; at Cannabinoid receptor 1, greater than 30 µM; in assay [5], greater than 10 µM.
Regarding `COc1ccc2[nH]c([S+]([O-])Cc3ncc(C)c(OC)c3C)nc2c1` (stereo not given) [OMEPRAZOLE], the AC50 (in assay [3]; at Estrogen receptor) was greater than 30 µM each time.
In assay [3], `CC(C)[C@@H]1CC[C@@H](C)C[C@H]1O` [LEVOMENTHOL] had an AC50 greater than 30 µM.
In [1], `CC(=O)NO` [ACETOHYDROXAMIC ACID] came in with an AC50 greater than 30 µM.
For `C[C@H]1CN(C[C@H](Cc2ccccc2)C(=O)NCC(=O)O)CC[C@@]1(C)c1cccc(O)c1` [ALVIMOPAN], the AC50 (in assay [3]; on Estrogen receptor) was greater than 30 µM throughout.
On to `C[N+]1(C)CCCC(OC(=O)C(O)(c2ccccc2)c2ccccc2)C1` (stereo not given) [MEPENZOLATE], for which the AC50 (in assay [3]; at Estrogen receptor) was greater than 30 µM throughout.
On to `N=C(N)N/N=C/c1c(Cl)cccc1Cl` [GUANABENZ], for which the AC50 (in [3]; at Estrogen receptor) was greater than 30 µM in each case.
As for `Cc1ccsc1C(=CCCN1CCC[C@@H](C(=O)O)C1)c1sccc1C` [TIAGABINE], the AC50 (in [3]; at Estrogen receptor) was greater than 30 µM in each case.
For `CC(=O)NCCCCCC(=O)O` [ACEXAMIC ACID], the half-maximal activity concentration (AC50) (in assay [3]; at Estrogen receptor) was greater than 30 µM in each case.
`C[N+](C)(C)CCOC(=O)CCC(=O)OCC[N+](C)(C)C` [SUXAMETHONIUM]: the AC50 (in assay [3]; at Estrogen receptor) was greater than 30 µM throughout.
On to `CC1(C)O[C@@H]2C[C@H]3[C@@H]4C[C@H](F)C5=CC(=O)C=C[C@]5(C)[C@@]4(F)[C@@H](O)C[C@]3(C)[C@]2(C(=O)CO)O1` [FLUOCINOLONE ACETONIDE], for which the AC50 (in [3]; at Estrogen receptor) was greater than 30 µM throughout.
In the case of `CC(C(=O)O)c1ccc2oc(-c3ccc(Cl)cc3)nc2c1` (stereo not given) [BENOXAPROFEN], the AC50 is greater than 10 µM in [2]; greater than 30 µM on D(1A) dopamine receptor; greater than 30 µM at Thromboxane A2 receptor; 26 µM in assay [4]; greater than 30 µM on D(3) dopamine receptor; greater than 30 µM at Endothelin-1 receptor. In addition, the AC50 (on Cannabinoid receptor 1; in [5]) was greater than 30 µM throughout.
Regarding `CCC1=C[C@@H]2CN(C1)Cc1c([nH]c3ccccc13)[C@@](C(=O)OC)(c1cc3c(cc1OC)N(C)[C@H]1[C@@](O)(C(=O)OC)[C@H](OC(C)=O)[C@]4(CC)C=CCN5CC[C@]31[C@@H]54)C2` [VINORELBINE], the AC50 (in assay [3]; at Estrogen receptor) was greater than 30 µM in each case.
Take `Cc1ccc(C(=O)c2ccc(CC(=O)O)n2C)cc1` [TOLMETIN]: the AC50 (in assay [3]; on Estrogen receptor) was greater than 30 µM each time.
Turning to `Cc1ccccc1C(=O)Nc1ccc(C(=O)N2CCCC(O)c3cc(Cl)ccc32)c(C)c1` (stereo not given) [TOLVAPTAN], the AC50 in assay [3] was greater than 30 µM.
Consider `CCNC(=O)/C=C(C)/C=C/C=C(C)/C=C/c1c(C)cc(OC)c(C)c1C` [MOTRETINIDE], for which the AC50 is greater than 30 µM in assay [3] and 16.4 µM on Estrogen receptor.
`CC(=O)Nc1ccc(CC(=O)O)cc1` [ACTARIT]: the AC50 (in assay [2]; on D(1A) dopamine receptor; on Thromboxane A2 receptor; in assay [4]; on D(3) dopamine receptor; at Endothelin-1 receptor) was greater than 30 µM each time. The AC50 (at Cannabinoid receptor 1; in [5]) was greater than 30 µM each time.
As to `CCOc1nc2cccc(C(=O)O)c2n1Cc1ccc(-c2ccccc2-c2nnn[nH]2)cc1`, the AC50 was greater than 10 µM in assay [2]; greater than 30 µM on D(1A) dopamine receptor; greater than 10 µM at Thromboxane A2 receptor; greater than 30 µM in [4]; greater than 30 µM at D(3) dopamine receptor; greater than 30 µM on Endothelin-1 receptor. The AC50 was greater than 30 µM at Cannabinoid receptor 1 and greater than 10 µM in assay [5].
`C[C@H]1O[C@@H](O[C@H]2CC[C@@]3(C)[C@H](CC[C@@H]4[C@@H]3C[C@@H](O)[C@]3(C)[C@@H](C5=CC(=O)OC5)CC[C@]43O)C2)C[C@H](O)[C@@H]1O[C@H]1C[C@H](O)[C@H](O[C@H]2C[C@H](O)[C@H](O[C@@H]3O[C@H](CO)[C@@H](O)[C@H](O)[C@H]3O)[C@@H](C)O2)[C@@H](C)O1` [DESLANOSIDE]: the AC50 (in assay [3]; at Estrogen receptor) was greater than 30 µM throughout.
For the compound `C=C(C)CNc1ccc(C(C)C(=O)O)cc1` (stereo not given) [ALMINOPROFEN], the AC50 (in assay [3]; at Estrogen receptor) was greater than 30 µM each time.
In the case of `Cc1cc(C2CCCCC2)n(O)c(=O)c1` [CICLOPIROX], the AC50 (in assay [3]; in assay [4]; on Estrogen receptor) was greater than 30 µM each time.
Turning to `CC(C(=O)O)c1cccc(Oc2ccccc2)c1` (stereo not given) [FENOPROFEN], the AC50 in assay [3] was greater than 30 µM.
As to `CN1Cc2c(N)cccc2C(c2ccccc2)C1` (stereo not given) [NOMIFENSINE], the AC50 (in [2]; at D(1A) dopamine receptor; at Thromboxane A2 receptor; in assay [4]; at D(3) dopamine receptor; on Endothelin-1 receptor) was greater than 30 µM throughout. Also, the AC50 (on Cannabinoid receptor 1; in [5]) was greater than 30 µM in each case.
Take `Cn1cc(C(=O)[C@@H]2CCc3nc[nH]c3C2)c2ccccc21` [RAMOSETRON]: the AC50 (in assay [2]; on D(1A) dopamine receptor; at Thromboxane A2 receptor; in [4]; at D(3) dopamine receptor; on Endothelin-1 receptor) was greater than 30 µM throughout. For the same compound, the AC50 (at Cannabinoid receptor 1; in assay [5]) was greater than 30 µM in each case.
For the compound `CN(C)c1ccc(O)c2c1C[C@H]1C[C@H]3[C@H](N(C)C)C(O)=C(C(N)=O)C(=O)[C@@]3(O)C(O)=C1C2=O` [MINOCYCLINE], the AC50 (in assay [3]; at Estrogen receptor) was greater than 30 µM each time.
